The target of series [1] is T1, human apical sodium-dependent bile acid transporter (ASBT) (Homo sapiens, UniProt Q12908).
T1 sequence (Q12908 1-348): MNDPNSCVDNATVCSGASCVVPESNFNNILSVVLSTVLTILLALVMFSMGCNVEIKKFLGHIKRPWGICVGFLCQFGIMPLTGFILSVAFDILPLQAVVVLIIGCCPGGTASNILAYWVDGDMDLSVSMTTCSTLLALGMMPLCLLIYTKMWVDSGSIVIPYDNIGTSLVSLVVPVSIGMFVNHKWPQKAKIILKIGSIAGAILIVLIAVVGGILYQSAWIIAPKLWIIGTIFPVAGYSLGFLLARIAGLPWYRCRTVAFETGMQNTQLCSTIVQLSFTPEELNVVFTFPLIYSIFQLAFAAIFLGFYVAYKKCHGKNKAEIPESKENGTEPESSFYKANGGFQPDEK
As to the kind of experiment: Inhibition of taurocholate uptake by prodrugs in ASBT-MDCK monolayers. It is filed as cell-based. The conditions noted are these: taurocholate uptake into ASBT-MDCK monolayers, 10 min.

For series [2] the following is noted: ref Porter and Kaplan, 2009; cited from earlier work.
For series [3] the following is noted: of the drug moiety; source not stated; cited from earlier work.
The target in series [4] is T1, human apical sodium-dependent bile acid transporter (ASBT). Put plainly: Uptake of prodrug into ASBT-MDCK monolayers.
The target in series [5] is Pept1. The note with it: CHO-PepT1; ref Han et al., 1998; cited from earlier work.
For series [6], the target named is Pept1. The conditions noted are these: Xenopus laevis oocytes; ref Balimane et al., 1998; cited from earlier work.
For series [7] the following is noted: ref Burnette and de, 1994; cited from earlier work.
The mark [8] stands for this setting: prodrug uptake into ASBT-MDCK, 1–500 μM, 10 min, 37°C, mean (±SEM) of three measurements.

“Also recorded” adds a separate entry of the source. Like-named read-outs stand apart in the source and are kept apart here.

On to `CC(C(=O)O)c1cccc(C(=O)c2ccccc2)c1` (stereo not drawn) [ketoprofen, Ketoprofen], for which the “ASBT inhibition (result in words)” value in series [1] is listed as “Neither ketoprofen nor niacin was ASBT inhibitor; also recorded: not reduced”.
In the case of `O=C(O)c1cccnc1` [niacin, nicotinic acid], the half-life (as a rule, the time in which the quantity being followed falls by half) in series [2] is 20 to 45 min. Moreover, in series [3], the Log P (as a rule, the decadic logarithm of the partition coefficient of the neutral form, usually between octanol and water) was 0.25. In addition, the “ASBT inhibition (result in words)” value in series [1] is reported as “Neither ketoprofen nor niacin was ASBT inhibitor; also recorded: not reduced”.
Turning to `C[C@H](CCC(=O)NCCS(=O)(=O)O)[C@H]1CC[C@H]2[C@@H]3[C@H](O)C[C@@H]4C[C@H](O)CC[C@]4(C)[C@H]3C[C@H](O)[C@]12C` [taurocholate, Taurocholic acid], the Kt in series [4] (taurocholate, obtained from a pooled data analysis approach) is 5.03 µM.
As to `CC(C)[C@H](N)C(=O)OCCOCn1cnc2c(=O)[nH]c(N)nc21` [valacyclovir], the inhibitory constant (Ki) (usually the equilibrium dissociation constant of an inhibitor or competing ligand from its target) was 1.1 mM on Pept1 [5] and 4.08 mM on Pept1 [6]. Further, the “increase of acyclovir bioavailability” value in series [7] is given as 3 fold.
In the case of CDCA-lysine-ketoprofen, the “transport capacity relative to the capacity for taurocholate” value in series [4] (from normJmax) amounted to 1.87 fold. Moreover, in series [4] (setting [8]), the Kt is 50.8 (±23.2) μM.
Take CDCA-lysine-niacin: the “ASBT's capacity to transport, relative to that of taurocholate” value in series [4] (from normJmax) is listed as “about 9%”. The Kt in series [4] (setting [8]) was 8.22 (±3.63) μM.
